Blank lines part the entries; values can stand above or below the compound they belong to. Calls of active or inactive are those of the source.
Experiments:
[1] = molecular target: Melanin-concentrating hormone receptor 1 (Homo sapiens, UniProt Q99705); experiment: Fluorescence-based counterscreen for antagonists of the G-protein coupled receptor 7 (GPR7): cell-based high throughput dose response assay to identify antagonists of the melanin-concentrating hormone receptor 1 (MCHR1).; assay type: functional
Sequence of Melanin-concentrating hormone receptor 1 (Q99705 whole entry): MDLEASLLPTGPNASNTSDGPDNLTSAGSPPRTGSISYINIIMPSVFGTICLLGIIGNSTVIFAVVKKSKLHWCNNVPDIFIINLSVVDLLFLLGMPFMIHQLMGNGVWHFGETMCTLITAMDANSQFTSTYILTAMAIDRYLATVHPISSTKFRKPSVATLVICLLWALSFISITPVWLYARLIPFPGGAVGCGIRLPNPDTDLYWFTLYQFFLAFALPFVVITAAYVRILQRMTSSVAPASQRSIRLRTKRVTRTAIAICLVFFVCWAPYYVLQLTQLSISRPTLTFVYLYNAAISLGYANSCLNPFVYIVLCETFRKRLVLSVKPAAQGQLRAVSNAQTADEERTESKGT

Cytochrome P450 2D6 = Cytochrome P450 2D6 (Homo sapiens, UniProt P10635);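 note: CYP2D6 member of a cytochrome P450 panel assay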
Sequence of Cytochrome P450 2D6 (P10635 whole entry): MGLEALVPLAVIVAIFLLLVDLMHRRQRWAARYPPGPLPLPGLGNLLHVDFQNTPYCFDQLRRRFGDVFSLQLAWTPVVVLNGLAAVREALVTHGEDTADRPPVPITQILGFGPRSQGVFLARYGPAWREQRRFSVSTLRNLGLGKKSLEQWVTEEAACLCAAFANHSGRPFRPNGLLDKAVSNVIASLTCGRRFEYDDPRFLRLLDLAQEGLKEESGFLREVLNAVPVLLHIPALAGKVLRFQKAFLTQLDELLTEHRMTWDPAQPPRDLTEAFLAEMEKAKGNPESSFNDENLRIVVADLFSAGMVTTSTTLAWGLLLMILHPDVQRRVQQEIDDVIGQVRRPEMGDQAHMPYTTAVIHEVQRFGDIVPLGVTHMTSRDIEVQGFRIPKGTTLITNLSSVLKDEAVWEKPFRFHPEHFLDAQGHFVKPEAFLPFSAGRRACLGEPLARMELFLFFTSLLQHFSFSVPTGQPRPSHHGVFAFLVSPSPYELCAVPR

[2] = molecular target: T1, Eukaryotic translation initiation factor 2-alpha kinase 3 (Homo sapiens, UniProt Q9NZJ5); experiment: Dose response cell-based high-throughput screening assay to measure PERK inhibition. [Related pubchem assays: 1416 ]; assay type: functional
T1 sequence (Q9NZJ5 whole entry): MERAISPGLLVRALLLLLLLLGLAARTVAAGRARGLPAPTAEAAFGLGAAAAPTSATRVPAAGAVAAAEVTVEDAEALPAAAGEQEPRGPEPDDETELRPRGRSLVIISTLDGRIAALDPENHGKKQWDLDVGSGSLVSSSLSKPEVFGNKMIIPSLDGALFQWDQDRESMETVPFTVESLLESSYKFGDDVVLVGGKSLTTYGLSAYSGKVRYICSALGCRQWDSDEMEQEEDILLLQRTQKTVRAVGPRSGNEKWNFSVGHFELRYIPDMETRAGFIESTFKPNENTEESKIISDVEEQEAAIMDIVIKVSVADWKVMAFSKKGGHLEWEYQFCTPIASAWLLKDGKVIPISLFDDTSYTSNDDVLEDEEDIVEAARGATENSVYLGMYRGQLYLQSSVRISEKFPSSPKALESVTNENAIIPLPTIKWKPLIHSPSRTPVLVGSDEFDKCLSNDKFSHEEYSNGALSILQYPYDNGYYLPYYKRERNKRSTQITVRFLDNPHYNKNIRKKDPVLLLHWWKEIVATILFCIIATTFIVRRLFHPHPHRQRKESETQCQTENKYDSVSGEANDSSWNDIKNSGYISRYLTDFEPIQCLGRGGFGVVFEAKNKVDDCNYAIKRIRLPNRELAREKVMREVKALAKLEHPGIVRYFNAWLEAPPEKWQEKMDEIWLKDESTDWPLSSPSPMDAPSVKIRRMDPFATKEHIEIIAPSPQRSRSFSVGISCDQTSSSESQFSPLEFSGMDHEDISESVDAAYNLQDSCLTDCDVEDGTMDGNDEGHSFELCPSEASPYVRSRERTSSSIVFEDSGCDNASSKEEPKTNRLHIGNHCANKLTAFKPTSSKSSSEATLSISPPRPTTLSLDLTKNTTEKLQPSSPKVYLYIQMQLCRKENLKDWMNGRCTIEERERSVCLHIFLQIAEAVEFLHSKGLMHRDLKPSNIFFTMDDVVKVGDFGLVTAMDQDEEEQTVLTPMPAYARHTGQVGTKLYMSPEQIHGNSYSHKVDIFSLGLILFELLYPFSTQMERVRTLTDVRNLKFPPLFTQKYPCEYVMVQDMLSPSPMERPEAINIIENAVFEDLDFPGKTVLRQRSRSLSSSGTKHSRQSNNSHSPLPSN

[3] = molecular target: T1, Eukaryotic translation initiation factor 2-alpha kinase 3; experiment: Counterscreen assay for PERK inhibitors: Dose response cell-based high throughput screening assay to measure inhibition of PERK at 6 hours. [Related pubchem assays: 1522, 1416 ]; assay type: functional
HEK293 = experiment: Fluorescence-based counterscreen for potentiators or agonists of NPY-Y2: cell-based high-throughput dose response assay to identify inhibitors of cyclic nucleotide gated ion channel (CNGC) activity. In this assay, the parental HEK293 cell line transfected with a cyclic-nucleotide gated ion channel (CNGC)-based cAMP sensor is used to measure inhibition of isoproterenol-induced CNGC activity by test compound.; assay type: functional; details: Homo sapiens;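 note: stimulus is 1 µM isoproterenol at EC100 plus PDE inhibitor Ro 20-1724 at 25 µM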
[4] = molecular target: T2, Neuropeptide Y receptor type 2 (Homo sapiens, UniProt P49146); experiment: Fluorescence-based cell-based high-throughput dose response assay for agonists of NPY-Y2. [Related pubchem assays: 1703 (Screening assay (CNGC inhibitors).), 1359 (Screening assay (NPY-Y2 potentiators or agonists).), 1304 (Screening assay (NPY-Y1 potentiators or agonists).), 1710 (Screening assay (NPY-Y2 agonists).), 1791 (Summary AID.)]; assay type: functional
T2 sequence (P49146 whole entry): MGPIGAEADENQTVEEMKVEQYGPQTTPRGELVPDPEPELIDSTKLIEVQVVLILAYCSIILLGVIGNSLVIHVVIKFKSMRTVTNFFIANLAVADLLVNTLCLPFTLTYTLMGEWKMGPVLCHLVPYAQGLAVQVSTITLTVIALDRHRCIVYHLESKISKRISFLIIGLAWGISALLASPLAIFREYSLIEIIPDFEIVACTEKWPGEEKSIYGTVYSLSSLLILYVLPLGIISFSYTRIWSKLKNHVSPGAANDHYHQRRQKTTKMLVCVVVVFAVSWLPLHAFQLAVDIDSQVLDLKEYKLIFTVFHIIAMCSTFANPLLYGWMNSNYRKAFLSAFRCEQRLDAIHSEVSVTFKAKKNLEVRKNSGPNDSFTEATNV

[5] = molecular target: T3, Neuropeptide Y receptor type 1 (Homo sapiens, UniProt P25929); experiment: Fluorescence-based counterscreen for agonists of NPY-Y2: cell-based high-throughput dose response assay for agonists of NPY-Y1.; assay type: functional
T3 sequence (P25929 whole entry): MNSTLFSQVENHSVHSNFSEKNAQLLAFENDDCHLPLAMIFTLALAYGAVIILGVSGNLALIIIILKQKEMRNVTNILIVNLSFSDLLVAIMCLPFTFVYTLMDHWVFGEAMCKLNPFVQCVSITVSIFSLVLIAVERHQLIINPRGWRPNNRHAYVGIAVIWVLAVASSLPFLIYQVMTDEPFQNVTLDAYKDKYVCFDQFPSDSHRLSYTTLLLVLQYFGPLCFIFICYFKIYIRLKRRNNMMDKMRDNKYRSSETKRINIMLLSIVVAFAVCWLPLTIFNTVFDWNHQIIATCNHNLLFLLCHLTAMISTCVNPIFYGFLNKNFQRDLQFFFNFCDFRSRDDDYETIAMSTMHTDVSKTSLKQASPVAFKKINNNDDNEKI

[6] = molecular target: Mothers against decapentaplegic homolog 3 (Homo sapiens, UniProt P84022); experiment: Smad3 binding inhibitors, lysate ELISA, dose response, cell lysate, secondary confirmation, chemiluminescent ELISA, HEK293 lysate (AID 1058); assay type: functional
Sequence of Mothers against decapentaplegic homolog 3 (P84022 whole entry): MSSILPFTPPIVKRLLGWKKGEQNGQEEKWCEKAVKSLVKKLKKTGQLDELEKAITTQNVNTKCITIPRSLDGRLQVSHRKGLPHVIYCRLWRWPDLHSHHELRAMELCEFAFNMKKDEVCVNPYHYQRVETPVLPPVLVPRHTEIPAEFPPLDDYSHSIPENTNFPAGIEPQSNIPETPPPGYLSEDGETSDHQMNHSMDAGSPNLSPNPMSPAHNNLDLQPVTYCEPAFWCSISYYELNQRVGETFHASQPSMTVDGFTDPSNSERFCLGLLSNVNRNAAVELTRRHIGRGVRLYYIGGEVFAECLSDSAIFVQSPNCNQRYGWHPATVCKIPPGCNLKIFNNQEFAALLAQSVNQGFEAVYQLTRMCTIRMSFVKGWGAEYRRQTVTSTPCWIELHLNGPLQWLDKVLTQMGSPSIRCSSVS

[7] = molecular target: Lysosomal acid glucosylceramidase (Homo sapiens, UniProt P04062); experiment: Dose response cell-based high throughput screening assay to identify enhancers of beta-glucosidase activity. [Related pubchem assays: 784 ]; assay type: functional
Sequence of Lysosomal acid glucosylceramidase (P04062 whole entry): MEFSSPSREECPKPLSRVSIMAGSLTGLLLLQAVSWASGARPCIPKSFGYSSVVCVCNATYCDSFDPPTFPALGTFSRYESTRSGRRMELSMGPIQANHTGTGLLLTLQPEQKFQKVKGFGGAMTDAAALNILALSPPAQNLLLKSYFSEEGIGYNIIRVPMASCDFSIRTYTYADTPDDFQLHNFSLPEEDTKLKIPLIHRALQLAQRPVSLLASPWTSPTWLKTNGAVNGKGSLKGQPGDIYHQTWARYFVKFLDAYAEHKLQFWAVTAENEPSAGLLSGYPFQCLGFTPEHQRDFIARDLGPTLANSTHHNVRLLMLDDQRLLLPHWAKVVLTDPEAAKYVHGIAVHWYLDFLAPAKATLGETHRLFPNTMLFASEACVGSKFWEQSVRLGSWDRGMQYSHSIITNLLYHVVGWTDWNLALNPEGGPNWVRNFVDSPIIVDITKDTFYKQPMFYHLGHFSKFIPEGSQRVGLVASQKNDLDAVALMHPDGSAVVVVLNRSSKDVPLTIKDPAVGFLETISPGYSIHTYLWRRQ

- EC50 [2]: > 55.7 µM (not active)
- EC50 [3]: > 55.7 µM (not active)
SMILES: CCN1CC(=O)Nc2cc(S(=O)(=O)N3CCOCC3)ccc21

- IC50 [6]: > 40 µM (not active)
SMILES: COc1cccc(C(c2cc3c(cc2O)OCO3)N2CCOCC2)c1O (centres undefined)

The remaining lines, values behind:

SMILES: COC(=O)[C@@]1(Cc2ccc(F)cc2)[C@H]2c3cc(C(=O)N(C)C)n(Cc4ccccc4)c3C[C@H]2CN1C(=O)c1ccccc1
- IC50 [1]: 11.1 µM (not active)
- AC50 (Cytochrome P450 2D6): 20 µM (inconclusive)

SMILES: CC1=NC(=O)C(N=Nc2ccccc2C(=O)O)N1c1ccccc1 (centres undefined)
- EC50 (HEK293): > 3.94 µM (active)
- EC50 [4]: 16.9 µM (not active)
- EC50 [5]: 9.92 µM (active)

SMILES: CC(C)CCn1nnnc1C(c1ccccc1)N1CCC(C(N)=O)CC1 (centres undefined)
- EC50 [7]: > 10 µM (not active)

Reference: ChEMBL document CHEMBL1201862, “PubChem BioAssay data set” (2004)
